Laboratory results from ChEMBL document CHEMBL1127525, “Synthesis and antitumor activities of novel 6-5 fused ring heterocycle antifolates: N-[4-[omega-(2-amino-4-substituted-6,7-dihydrocyclopenta [d]pyrimidin-5-yl)alkyl]benzoyl]-L-glutamic acids” (J Med Chem, 1994).

Legend:
[1] = molecular target: T1, Dihydrofolate reductase (Mus musculus, UniProt P00375); assay: Compound was tested for the inhibition of dihydrofolate reductase in P388 cells; assay type: cell-based
T1 sequence (P00375 whole entry): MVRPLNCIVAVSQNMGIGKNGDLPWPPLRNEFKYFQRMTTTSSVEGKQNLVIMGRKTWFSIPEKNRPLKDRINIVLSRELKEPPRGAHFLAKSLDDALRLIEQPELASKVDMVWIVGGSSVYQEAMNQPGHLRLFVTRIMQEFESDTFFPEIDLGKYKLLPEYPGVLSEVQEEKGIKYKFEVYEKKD

[2] = system: KB; assay: Inhibitory concentration of compound was tested against KB tumor growth cell line; assay type: functional, cell-based; conditions: Homo sapiens
[3] = system: P388; assay: inhibitory concentration of compound was tested against P388:Methotrexate resistant cells tumor growth cell line; assay type: functional, cell-based; conditions: Mus musculus
[4] = system: P388 (Mus musculus); assay: Inhibitory concentration of compound was tested against P388 tumor growth cell line
[5] = system: MC-38; assay: Inhibitory concentration of compound was tested against Colon 38 tumor growth cell line; assay type: functional, cell-based; conditions: Mus musculus
[6] = system: Colon 26; assay: (§1) Inhibitory concentration of compound was tested against Colon 26 tumor growth cell line; assay type: functional, cell-based; conditions: Mus musculus
[7] = system: Mus musculus; assay: Compound was evaluated for the activity against Colon 26 Mouse colorectal carcinoma in mice by tumor weight assay at 1.25 (mg/kg) dose; assay type: functional
[8] = system: Mus musculus; assay: Compound was evaluated for the activity against LC-6 Non-Small cell lung carcinoma in mice by tumor weight assay at 5 (mg/kg) dose experiment-1; assay type: functional
[9] = system: Mus musculus; assay: Compound was evaluated for the activity against Colon 26 Mouse colorectal carcinoma in mice by tumor weight assay at 2.5 (mg/kg) dose; assay type: functional
[10] = system: Mus musculus; assay: Compound was evaluated for the activity against Colon 26 Mouse colorectal carcinoma in mice by tumor weight assay at 0.6 (mg/kg) dose; assay type: functional
[11] = system: Mus musculus; assay: Compound was evaluated for the life span assay against P388 Leukemia in mice (Controls died in an average of 9.8 days) at 0.39 (mg/kg) dose; assay type: functional
[12] = system: Mus musculus; assay: Compound was evaluated for the life span assay against P388 Leukemia in mice (Controls died in an average of 9.8 days) at 0.2 (mg/kg) dose; assay type: functional
[13] = system: Mus musculus; assay: Compound was evaluated for the life span assay against P388 Leukemia in mice (Controls died in an average of 9.8 days) at 0.1 (mg/kg) dose; assay type: functional
[14] = system: Mus musculus; assay: Compound was evaluated for the activity against Colon 26 Mouse colorectal carcinoma in mice by tumor weight assay at 0.3 (mg/kg) dose; assay type: functional
[15] = system: Colon 26; assay: Inhibitory concentration of compound was tested against Colon 26 Mouse Colorectal Carcinoma on 4 hour exposure; assay type: functional, cell-based; conditions: Colon 26, 4 h
[16] = system: P388; assay: Inhibitory concentration of compound was tested against P388:Methotrexate resistant cells tumor growth cell line; assay type: functional, cell-based; conditions: Mus musculus
[17] = system: Mus musculus; assay: Compound was evaluated for the activity against LC-6 Non-Small cell lung carcinoma in mice by tumor weight assay at 5 (mg/kg) dose experiment-2; assay type: functional
[18] = system: Mus musculus; assay: Compound was evaluated for the life span assay against P388 Leukemia in mice (Controls died in an average of 9.8 days) at 0.05 (mg/kg) dose; assay type: functional
[19] = system: Mus musculus; assay: Compound was evaluated for the life span assay against P388 Leukemia in mice (Controls died in an average of 9.8 days) at 1.56 (mg/kg) dose; assay type: functional
[20] = system: Mus musculus; assay: Compound was evaluated for the activity against LC-6 Non-Small cell lung carcinoma in mice by tumor weight assay at 1.3 (mg/kg) dose experiment-2; assay type: functional
[21] = system: Mus musculus; assay: Compound was evaluated for the life span assay against P388 Leukemia in mice (Controls died in an average of 9.8 days) at 3.13 (mg/kg) dose; assay type: functional
[22] = system: Mus musculus; assay: Compound was evaluated for the activity against LC-6 Non-Small cell lung carcinoma in mice by tumor weight assay at 2.5 (mg/kg) dose experiment-2; assay type: functional
[23] = system: Mus musculus; assay: Compound was evaluated for the life span assay against P388 Leukemia in mice (Controls died in an average of 9.8 days) at 0.78 (mg/kg) dose; assay type: functional
[24] = system: Mus musculus; assay: Compound was evaluated for the activity against LC-6 Non-Small cell lung carcinoma in mice by tumor weight assay at 2.5 (mg/kg) dose experiment-1; assay type: functional
[25] = system: Mus musculus; assay: Compound was evaluated for the life span assay against P388 Leukemia in mice (Controls died in an average of 9.8 days) at 12.5 (mg/kg) dose; assay type: functional
[26] = system: P388; assay: Inhibitory concentration of compound was tested against P388 tumor growth cell line; assay type: functional, cell-based; conditions: Mus musculus
[27] = system: Mus musculus; assay: Compound was evaluated for the activity against Colon 26 Mouse colorectal carcinoma in mice by tumor weight assay at 10 (mg/kg) dose; assay type: functional
[28] = system: Mus musculus; assay: Compound was evaluated for the life span assay against P388 Leukemia in mice (Controls died in an average of 9.8 days) at 50 (mg/kg) dose; assay type: functional
[29] = system: Mus musculus; assay: Compound was evaluated for the activity against Colon 26 Mouse colorectal carcinoma in mice by tumor weight assay at 5 (mg/kg) dose; assay type: functional
[30] = system: Mus musculus; assay: Compound was evaluated for the activity against LC-6 Non-Small cell lung carcinoma in mice by tumor weight assay at 20 (mg/kg) dose experiment-1; assay type: functional
[31] = system: Mus musculus; assay: Compound was evaluated for the activity against Colon 26 Mouse colorectal carcinoma in mice by tumor weight assay at 20 (mg/kg) dose; assay type: functional
[32] = system: Mus musculus; assay: Compound was evaluated for the activity against LC-6 Non-Small cell lung carcinoma in mice by tumor weight assay at 10 (mg/kg) dose in experiment-1; assay type: functional
[33] = system: Mus musculus; assay: Compound was evaluated for the activity against LC-6 Non-Small cell lung carcinoma in mice by tumor weight assay at 40 (mg/kg) dose experiment-2; assay type: functional
[34] = system: Mus musculus; assay: Compound was evaluated for the life span assay against P388 Leukemia in mice (Controls died in an average of 9.8 days) at […] (mg/kg) dose; assay type: functional
[35] = system: Mus musculus; assay: Compound was evaluated for the activity against LC-6 Non-Small cell lung carcinoma in mice by tumor weight assay at 20 (mg/kg) dose experiment-2; assay type: functional
[36] = system: Mus musculus; assay: Compound was evaluated for the activity against LC-6 Non-Small cell lung carcinoma in mice by tumor weight assay at 10 (mg/kg) dose experiment-2; assay type: functional
[37] = species: Mus musculus; assay: as §1; assay type: functional
[38] = system: Mus musculus; assay: Compound was evaluated for the life span assay and the activity against P388 Leukemia in mice (Controls died in an average of 9.8 days) at 3.13 (mg/kg) dose; assay type: functional
[39] = system: Mus musculus; assay: Compound was evaluated for the activity against LC-6 Non-Small cell lung carcinoma in mice by tumor weight assay at 40 (mg/kg) dose; assay type: functional
[40] = system: Mus musculus; assay: Compound was evaluated for the activity against Colon 26 Mouse colorectal carcinoma in mice by tumor weight assay at 40 (mg/kg) dose
[41] = system: Mus musculus; assay: Compound was evaluated for the activity against LC-6 Non-Small cell lung carcinoma in mice by tumor weight assay at 10 (mg/kg) dose; assay type: functional
[42] = system: Mus musculus; assay: Compound was evaluated for the activity against LC-6 Non-Small cell lung carcinoma in mice by tumor weight assay at 20 (mg/kg) dose; assay type: functional
[43] = molecular target: T2, Thymidylate synthase (Lactobacillus casei, UniProt P00469); assay: Binding affinity against TS
T2 sequence (P00469 whole entry): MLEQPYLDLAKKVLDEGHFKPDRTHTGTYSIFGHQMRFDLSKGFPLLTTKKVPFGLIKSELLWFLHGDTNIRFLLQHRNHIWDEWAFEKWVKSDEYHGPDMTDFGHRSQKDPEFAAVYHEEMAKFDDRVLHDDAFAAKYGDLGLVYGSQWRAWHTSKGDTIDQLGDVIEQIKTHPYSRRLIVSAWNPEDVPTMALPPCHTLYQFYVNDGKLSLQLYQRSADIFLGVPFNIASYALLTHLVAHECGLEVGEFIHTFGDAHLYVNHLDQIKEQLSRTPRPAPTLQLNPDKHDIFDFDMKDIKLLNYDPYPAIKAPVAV

[44] = molecular target: T1, Dihydrofolate reductase; assay: Binding affinity against dihydrofolate reductase

SMILES: Nc1nc2c(c(=O)[nH]1)C(CCc1ccc(C(=O)NC(CCC(=O)O)C(=O)O)cc1)CC2 (stereo unspecified)
- IC50 [1]: 0.0021 µM
- IC50 [2]: > 1 µM
- IC50 [3]: > 1 µM
- IC50 [4]: > 1 µM
- IC50 [5]: > 1 µM
- IC50 [6]: > 1 µM

SMILES: Nc1nc(N)c2c(n1)CCC2CCCc1ccc(C(=O)NC(CCC(=O)O)C(=O)O)cc1 (stereo unspecified)
- T/C [7]: 38%
- T/C [8]: 23%
- T/C [9]: 31%
- T/C [10]: 49%
- IC50 [2]: 0.0017 µM
- T/C [11]: 158%
- T/C [12]: 147%
- T/C [13]: 130%
- T/C [14]: 71%
- IC50 [15]: 1.7 µM
- IC50 [16]: 0.019 µM
- T/C [17]: 1%
- T/C [18]: 120%
- T/C [19]: 180%
- T/C [20]: 4%
- T/C [21]: 138%
- T/C [22]: 9%
- IC50 [5]: 0.0051 µM
- T/C [23]: 170%
- IC50 [6]: 0.003 µM
- T/C [24]: 6%

SMILES: Nc1nc(N)c2c(n1)CCC2CCc1ccc(C(=O)NC(CCC(=O)O)C(=O)O)cc1 (stereo unspecified)
- T/C [25]: 147%
- IC50 [1]: 0.072 µM
- IC50 [26]: 0.0071 µM
- T/C [9]: 95%
- IC50 [2]: 0.0041 µM
- T/C [27]: 41%
- T/C [28]: 148%
- T/C [29]: 62%
- IC50 [15]: 0.19 µM
- IC50 [16]: 0.064 µM
- T/C [21]: 135%
- IC50 [5]: 0.01 µM
- T/C [23]: 129%
- IC50 [6]: 0.008 µM

SMILES: Nc1nc(O)c2c(n1)CCC2CCCc1ccc(C(=O)NC(CCC(=O)O)C(=O)O)cc1 (stereo unspecified)
- IC50 [2]: > 1 µM
- IC50 [16]: > 1 µM
- IC50 [4]: > 1 µM
- IC50 [6]: > 1 µM

SMILES: CCC(Cc1cnc2nc(N)nc(N)c2n1)c1ccc(C(=O)N[C@@H](CCC(=O)O)C(=O)O)cc1 (stereo partly specified) [EDATREXATE]
- T/C [25]: 157%
- IC50 [26]: 0.0043 µM
- IC50 [2]: 0.003 µM
- T/C [30]: 38%
- T/C [31]: 64%
- T/C [32]: 63%
- T/C [33]: 1%
- T/C [27]: 70%
- T/C [34]: 165%
- T/C [35]: 1%
- T/C [11]: 135%
- T/C [12]: 114%
- IC50 [15]: > 40 µM
- IC50 [16]: 0.044 µM
- T/C [19]: 155%
- T/C [21]: 162%
- T/C [36]: 22%
- IC50 [5]: 0.011 µM
- T/C [23]: 136%
- IC50 [6]: 0.0048 µM

SMILES: CN(Cc1cnc2nc(N)nc(N)c2n1)c1ccc(C(=O)N[C@@H](CCC(=O)O)C(=O)O)cc1 [METHOTREXATE]
- IC50 [37]: 0.031 µM
- IC50 [26]: 0.023 µM
- IC50 [2]: 0.019 µM
- T/C [31]: 65%
- T/C [27]: 71%
- T/C [34]: 168%
- T/C [38]: 149%
- T/C [39]: 35%
- T/C [40]: 31%
- IC50 [15]: > 40 µM
- IC50 [16]: 0.223 µM
- T/C [41]: 100%
- T/C [23]: 122%
- T/C [42]: 53%

SMILES: Nc1nc2[nH]cc(CCc3ccc(C(=O)N[C@@H](CCC(=O)O)C(=O)O)cc3)c2c(=O)[nH]1 [PEMETREXED]
- Ki [43]: 0.55 µM
- Ki [44]: 0.56 µM
